In PubChem BioAssay (NCI):
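Step 1: Grow cells in 96-well plates. Step 2: Expose to compound for 48 hours at 5 concentrations. Step 3: Interpolate endpoints linearly; if unreached, use highest concentration. TGI marks complete inhibition of growth.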

Legend:
Test in all cases: DTP human tumour cell line panel, 48 h
SK-MEL-28 melanoma = system: SK-MEL-28 melanoma
IGROV1 ovarian = system: IGROV1 ovarian
ACHN renal = system: ACHN renal
OVCAR-8 ovarian = system: OVCAR-8 ovarian
HCT-15 colon = system: HCT-15 colon
BT-549 breast = system: BT-549 breast
RXF 393 renal = system: RXF 393 renal
SK-MEL-2 melanoma = system: SK-MEL-2 melanoma
HOP-92 NSCLC = system: HOP-92 NSCLC
786-0 renal = system: 786-0 renal
SNB-75 CNS = system: SNB-75 CNS
HCT-116 colon = system: HCT-116 colon
NCI-H522 lung = system: NCI-H522 lung
NCI-H226 lung = system: NCI-H226 lung
U251 CNS = system: U251 CNS
SF-295 CNS = system: SF-295 CNS
MOLT-4 leukemia = system: MOLT-4 leukemia
SF-539 CNS = system: SF-539 CNS
COLO 205 colon = system: COLO 205 colon
PC-3 prostate = system: PC-3 prostate
HOP-62 NSCLC = system: HOP-62 NSCLC
OVCAR-5 ovarian = system: OVCAR-5 ovarian
MALME-3M melanoma = system: MALME-3M melanoma
NCI-H460 lung = system: NCI-H460 lung
MDA-MB-231 breast = system: MDA-MB-231 breast
TK-10 renal = system: TK-10 renal
T-47D breast = system: T-47D breast
LOX IMVI melanoma = system: LOX IMVI melanoma
UACC-257 melanoma = system: UACC-257 melanoma
MDA-MB-435 = system: MDA-MB-435
DU-145 prostate = system: DU-145 prostate
MCF7 breast = system: MCF7 breast
K-562 leukemia = system: K-562 leukemia
OVCAR-3 ovarian = system: OVCAR-3 ovarian
HS 578T breast = system: HS 578T breast
SK-MEL-5 melanoma = system: SK-MEL-5 melanoma
MDA-N = system: MDA-N
NCI/ADR-RES ovarian = system: NCI/ADR-RES ovarian
OVCAR-4 ovarian = system: OVCAR-4 ovarian
CAKI-1 renal = system: CAKI-1 renal
A498 renal = system: A498 renal
UACC-62 melanoma = system: UACC-62 melanoma
HT29 colon = system: HT29 colon
SR leukemia = system: SR leukemia
KM12 colon = system: KM12 colon
HL-60(TB) leukemia = system: HL-60(TB) leukemia
SN12C renal = system: SN12C renal
SW-620 colon = system: SW-620 colon
SK-OV-3 ovarian = system: SK-OV-3 ovarian
NCI-H23 lung = system: NCI-H23 lung
SF-268 CNS = system: SF-268 CNS
UO-31 renal = system: UO-31 renal
HCC-2998 colon = system: HCC-2998 colon
A549 NSCLC = system: A549 NSCLC
SNB-19 CNS = system: SNB-19 CNS
RPMI-8226 leukemia = system: RPMI-8226 leukemia
M14 melanoma = system: M14 melanoma
EKVX NSCLC = system: EKVX NSCLC
CCRF-CEM leukemia = system: CCRF-CEM leukemia

For `O=[N+]([O-])c1ccc(NC(=S)N=Nc2c(O)[nH]c3ccc(Br)cc23)cc1`, the TGI (SK-MEL-28 melanoma) was 33.5 µM, the TGI (IGROV1 ovarian) was 18.3 µM and the TGI (ACHN renal) was 18 µM. For the same compound, the TGI (OVCAR-8 ovarian) was 20 µM, the TGI (HCT-15 colon) was 12.9 µM and the TGI (BT-549 breast) was 11.1 µM. It also gave a TGI (RXF 393 renal) of 26.5 µM, a TGI (SK-MEL-2 melanoma) of 28.4 µM and a TGI (HOP-92 NSCLC) of 22.7 µM. The TGI (786-0 renal) was 21.8 µM, the TGI (SNB-75 CNS) was 30.7 µM and the TGI (HCT-116 colon) was 18 µM. It also gave a TGI (NCI-H522 lung) of 27.5 µM, a TGI (NCI-H226 lung) of 38.1 µM and a TGI (U251 CNS) of 21.9 µM. It also gave a TGI (SF-295 CNS) of 22 µM, a TGI (MOLT-4 leukemia) greater than 100 µM and a TGI (SF-539 CNS) of 82.9 µM. For the same compound, the TGI (COLO 205 colon) was 56.5 µM, the TGI (PC-3 prostate) was 20.7 µM and the TGI (HOP-62 NSCLC) was 30.4 µM. The TGI (OVCAR-5 ovarian) was 28.3 µM, the TGI (MALME-3M melanoma) was 20.2 µM and the TGI (NCI-H460 lung) was 21.2 µM. It also gave a TGI (MDA-MB-231 breast) of 32 µM, a TGI (TK-10 renal) of 28.5 µM and a TGI (T-47D breast) of 37.8 µM. For the same compound, the TGI (LOX IMVI melanoma) was 22.4 µM, the TGI (UACC-257 melanoma) was 29.8 µM and the TGI (MDA-MB-435) was 25.4 µM. The TGI (DU-145 prostate) was 24.2 µM, the TGI (MCF7 breast) was 22 µM and the TGI (K-562 leukemia) was greater than 100 µM. It also gave a TGI (OVCAR-3 ovarian) of 21.8 µM, a TGI (HS 578T breast) of 39.6 µM and a TGI (SK-MEL-5 melanoma) of 33.4 µM. It also gave a TGI (MDA-N) of 23.5 µM, a TGI (NCI/ADR-RES ovarian) of 6.13 µM and a TGI (OVCAR-4 ovarian) of 21.1 µM. For the same compound, the TGI (CAKI-1 renal) was 20.6 µM, the TGI (A498 renal) was 17.2 µM and the TGI (UACC-62 melanoma) was 18.3 µM. For the same compound, the TGI (HT29 colon) was 24.9 µM, the TGI (SR leukemia) was 42.7 µM and the TGI (KM12 colon) was 22 µM. It also gave a TGI (HL-60(TB) leukemia) of 7.09 µM, a TGI (SN12C renal) of 23.8 µM and a TGI (SW-620 colon) of 30 µM. The TGI (SK-OV-3 ovarian) was 28.9 µM, the TGI (NCI-H23 lung) was 12.9 µM and the TGI (SF-268 CNS) was 26.1 µM.
`COc1cc(I)c2c3c1OC1C34CCN(C)C(C2)C4=CC(I)C1(OC)OC` (stereo not given) showed a TGI (SK-MEL-28 melanoma) of 47.5 µM, a TGI (IGROV1 ovarian) of 54.3 µM and a TGI (UO-31 renal) of 34.7 µM. For the same compound, the TGI (HCC-2998 colon) was 28.9 µM, the TGI (ACHN renal) was 98.3 µM and the TGI (OVCAR-8 ovarian) was 53 µM. For the same compound, the TGI (HCT-15 colon) was 63.4 µM, the TGI (BT-549 breast) was 48.4 µM and the TGI (RXF 393 renal) was 38.2 µM. The TGI (SK-MEL-2 melanoma) was 32.9 µM, the TGI (HOP-92 NSCLC) was 45.6 µM and the TGI (786-0 renal) was 43.7 µM. It also gave a TGI (SNB-75 CNS) of 31.2 µM, a TGI (HCT-116 colon) of 60.6 µM and a TGI (NCI-H522 lung) of 44.2 µM. For the same compound, the TGI (A549 NSCLC) was greater than 100 µM, the TGI (NCI-H226 lung) was 70.5 µM and the TGI (U251 CNS) was 33.9 µM. For the same compound, the TGI (SF-295 CNS) was greater than 100 µM, the TGI (MOLT-4 leukemia) was 42.4 µM and the TGI (SNB-19 CNS) was 71.9 µM. The TGI (SF-539 CNS) was 40.1 µM, the TGI (COLO 205 colon) was 45.2 µM and the TGI (PC-3 prostate) was 82.1 µM. The TGI (HOP-62 NSCLC) was 46.3 µM, the TGI (RPMI-8226 leukemia) was 49.7 µM and the TGI (OVCAR-5 ovarian) was 81.6 µM. It also gave a TGI (MALME-3M melanoma) of 47.1 µM, a TGI (NCI-H460 lung) of 38.7 µM and a TGI (MDA-MB-231 breast) of 46.3 µM. The TGI (TK-10 renal) was 51.1 µM, the TGI (T-47D breast) was 31.1 µM and the TGI (M14 melanoma) was greater than 100 µM. It also gave a TGI (EKVX NSCLC) greater than 100 µM, a TGI (LOX IMVI melanoma) of 42.3 µM and a TGI (UACC-257 melanoma) of 49.4 µM. It also gave a TGI (MDA-MB-435) of 33.8 µM, a TGI (DU-145 prostate) of 47.5 µM and a TGI (MCF7 breast) of 64.3 µM. The TGI (K-562 leukemia) was 61.8 µM, the TGI (OVCAR-3 ovarian) was 59 µM and the TGI (HS 578T breast) was greater than 100 µM. It also gave a TGI (SK-MEL-5 melanoma) of 34 µM, a TGI (MDA-N) of 48 µM and a TGI (NCI/ADR-RES ovarian) of 68 µM. It also gave a TGI (OVCAR-4 ovarian) of 55.9 µM, a TGI (CAKI-1 renal) of 93.8 µM and a TGI (A498 renal) of 86.4 µM. It also gave a TGI (UACC-62 melanoma) of 42 µM, a TGI (HT29 colon) of 83.6 µM and a TGI (CCRF-CEM leukemia) of 26.8 µM. For the same compound, the TGI (SR leukemia) was 40.9 µM, the TGI (KM12 colon) was 40 µM and the TGI (HL-60(TB) leukemia) was 47.3 µM. For the same compound, the TGI (SN12C renal) was 31.9 µM, the TGI (SW-620 colon) was 52.2 µM and the TGI (SK-OV-3 ovarian) was 68 µM. It also gave a TGI (NCI-H23 lung) of 54.7 µM and a TGI (SF-268 CNS) of 61.5 µM.
